Residues, ends and D or L forms follow the SMILES beside them.
Tests used:
[1] = test system: Empedobacter brevis strain FERM BP-8113 microbial cells; test: Production of peptide using microbial cells of Empedobacter brevis; format: cell-based; conditions: 1 mL 100 g/L cell suspension + 1 mL buffer with 200 mM carboxy component, 400 mM amino acid, 10 mM EDTA, pH 9.0, 18° C., 2 hours
Method: A 50 mL medium (pH 6.2) containing 5 grams (g) of glucose, 5 g of ammonium sulfate, 1 g of monopotassium phosphate, 3 g of dipotassium phosphate, 0.5 g of magnesium sulfate, 10 g of yeast extract and 10 g of peptone in 1 liter (L) was transferred to a 500 mL Sakaguchi flask and sterilized at 115° C. for 15 minutes.
Microbial cells were collected by centrifuging (10,000 rounds per minute (rpm), 15 minutes) the culture broth obtained in Example 1, followed by suspending them to a concentration of 100 g/L in 100 mM borate buffer (pH 9.0) containing 10 mM EDTA. After respectively adding 1 mL of the suspension to 1 mL each of 100 mM borate buffer solutions (pH 9.0) containing 10 mM EDTA, 200 mM of the following carboxy components, and 400 mM of the following amino acids to make a final volume of 2 mL, the reaction was carried out at 18° C. for 2 hours.

[2] = test system: peptide-forming enzyme from Empedobacter brevis strain FERM BP-8113; test: Substrate specificity of enzyme (peptide production from carboxy and amine components); format: biochemical; conditions: L-amino acid methyl ester hydrochloride 100 mM, 150 mM L-glutamine, pH 9.0, 25° C., 3 hours
Source text: Ester specificity was examined in the case of using L-amino acid ester for the carboxy component. […] HCl represents hydrochloride in Table 4.
Peptide production was examined in the case of using L-alanine methyl ester for the carboxy component and using various L-amino acids for the amine component.
Peptide production was examined in the case of using various types of L-amino acid methyl esters for the carboxy component and using L-glutamine for the amine component. […] Furthermore, Tween-80 was added to the reaction system to a final concentration of 0.1% in the case of using L-Trp-OMe and L-Tyr-OMe.

[3] = test system: Sphingobacterium sp. strain FERM BP-8124 microbial cells; test: Production of L-alanyl-L-glutamine using microbial cells of Sphingobacterium sp.; format: cell-based; conditions: 0.1 mL 100 g/L cell suspension + 0.1 mL buffer with 200 mM L-alanine methyl ester hydrochloride, 400 mM L-glutamine, pH 9.0, 25° C., 120 minutes
Method: (§1) 22, 2002). […] 1 ml of this culture broth was then added to the aforementioned medium (50 ml/500 mL Sakaguchi flask) and cultured at 30° C. for 18 hours. Following completion of the culturing, the microbial cells were separated from the culture broth by centrifugation and suspended in 0.1 M borate buffer (pH 9.0) containing 10 mM EDTA at a concentration of 100 g/L as wet microbial cells. […] The resulting 0.2 mL of mixture was allowed to react at 25° C. for 120 minutes. The concentration of L-alanyl-L-glutamine formed at this time was 62 mM.
as §1, with “After” for “Following”, “culture,” for “culturing,”, “minutes.” for “minutes. The concentration of L-alanyl-L-glutamine formed at this time was 62 mM.”

[4] = test system: peptide-forming enzyme from Sphingobacterium sp. strain FERM BP-8124; test: Production of L-alanyl-L-glutamine using SP-Sepharose HP enzyme fraction of Sphingobacterium sp.; format: biochemical; conditions: 10 μl SP-Sepharose HP fraction + 90 μl buffer with 111 mM L-alanine methyl ester hydrochloride, 222 mM L-glutamine, pH 9.0, 25° C., 120 minutes
Method: As a result, 73 mM of L-alanyl-L-glutamine was formed in the enzyme-added lot.

[5] = test system: enzyme derived from Sphingobacterium sp. strain FERM BP-8124; test: Substrate specificity of enzyme derived from Sphingobacterium sp.; format: biochemical; conditions: Table 15-4; carboxy component 100 mM, amine component 150 mM, 0.33 units enzyme, pH 9.0, 25° C., 1.5 hours
[6] = test system: peptide-forming enzyme from Empedobacter brevis strain FERM BP-8113; test: Substrate specificity of enzyme (peptide production from carboxy and amine components); format: biochemical; conditions: L-amino acid amide hydrochloride 100 mM as carboxy component, L-amino acid 150 mM, pH 9.0, 25° C., 3 hours
[7] = test system: peptide-forming enzyme from Empedobacter brevis strain FERM BP-8113; test: Production of L-alanyl-L-glutamine from L-alanine methyl ester and L-glutamine with the Mono S fraction enzyme; conditions: L-alanine methyl ester hydrochloride 100 mM, 18° C., 2 hours

SMILES: C[C@H](N)C(=O)N[C@@H](CCC(N)=O)C(=O)O [L-Ala-L-Gln, L-alanyl-L-glutamine] (H-Ala-Gln-OH)
- Formed peptide [1]: 68.0 mM
- Formed peptide [2]: 74.6 mM
- concentration of L-alanyl-L-glutamine formed [3]: 62 mM
- L-alanyl-L-glutamine formed [4]: 73 mM
- Produced peptide [5]: 0.3 mM
- Formed peptide [6]: 7.6 mM
- L-Ala-L-Gln ([7]; L-glutamine 100 mM): 68.2 mM
- L-Ala-L-Gln ([7]; L-glutamine 110 mM): 72.1 mM
- L-Ala-L-Gln ([7]; L-glutamine 120 mM): 73.3 mM
- L-Ala-L-Gln ([7]; L-glutamine 130 mM): 75.1 mM
- L-Ala-L-Gln ([7]; L-glutamine 150 mM): 75.5 mM
- L-Ala-L-Gln ([7]; L-glutamine 200 mM): 82.0 mM

Reference: US8753841B2, “Enzyme that catalyzes a peptide-forming reaction from a carboxy component and an amine component, microbe producing the same, and a method of producing a dipeptide using the enzyme or microbe” (Ajinomoto Co., Inc., priority 2002, dated 2014)
